Results taken from publication PMC7596181 (Frontiers in Immunology, 2020).

Columns and labels:
human TLR4 [1] = molecular target: T1, human TLR4 (Homo sapiens, UniProt O00206+Q9Y6Y9); assay: SEAP assay, agonist dose response in human TLR4 HEK-Blue reporter cells; type: cell-based; set-up: host or cells: HEK-Blue (HEK293-derived) reporter cells; details: human TLR4 HEK-Blue reporter cells
Procedure: Human and mouse HEK-Blue reporter cells express human or mouse CD14, MD2, and TLR4 and secreted embryonic alkaline phosphatase (SEAP) under control of a promoter with binding sites for NFκB and AP-1 transcription factors (InvivoGen cat. nos. hkb-htlr4 and hkb-mtlr4). Cells were cultured as directed by the supplier, with the exception that Glutamax (ThermoFisher cat. no. 10569010) was used in place of L-glutamine, and TrypLE Express (ThermoFisher cat. no. 12605010) was used to release adherent cells for each passage. BALB/c mouse RAW264.7 and human THP-1 cells (ATCC® cat. nos. TIB-71 and TIB-202) were cultured in DMEM (4.5 g/L D-Glucose with 2 mM L-glutamine, 1 mM sodium pyruvate, 100 U/ml penicillin and 100 μg/ml streptomycin) supplemented with 10% heat-inactivated FBS. THP-1 cells were exposed to phorbol-12-myristate-13-acetate (PMA, InvivoGen cat no. tlrl-pma), 5 ng/ml, for 48 h prior to treatment with TLR4 agonists. Bone marrow-derived dendritic cells (BMDCs) were generated using C57BL/6 mouse femurs following the exact method published by Lutz et al. ([29]) except that 5 rather than 20 ng/ml recombinant GM-CSF was used to differentiate the DC. Human peripheral blood […] (PBMCs) were prepared from venous blood of healthy volunteers that had been collected using sodium citrate as anti-coagulant, 20 ml of which was mixed with 15 ml calcium- and magnesium-free Hank’s Balanced Saline Solution (HBSS) and then laid over 6 ml Histopaque®-1077 (1.077 g/ml, Sigma-Aldrich cat no. 10771) for density gradient centrifugation. The buffy coat layer was collected by pipette, washed once in HBSS, once in serum-free RPMI-1640, and then the PBMCs were resuspended in RPMI-1640 supplemented with 100 U/ml penicillin, 100 µg/ml streptomycin, 1 mM Na-Pyruvate, 2 mM L-glutamine, 50 μM βME and 10% heat-inactivated, male AB human serum for culture.
(§1) SEAP assays were performed to evaluate the extent to which TLR4 signaling was activated in HEK-Blue reporter cells expressing mouse or human receptors (CD14, MD2 and TLR4). Reporter cells were harvested when 70–80% confluent and plated in 96-well, flat-bottom microtiter plates either 1 h, one day or two days (5 × 10^4, 4 × 10^4 or 2 × 10^4 cells/well, respectively) before addition of TLR4 agonists for 18–24 h. Culture supernatants were transferred to U-bottom microtiter plates, centrifuged and transferred again to microtiter plates to ensure reporter cells were not present. The culture supernatants were added to QUANTI-BLUE substrate following instructions provided by the manufacturer (InvivoGen cat. nos. rep-qbl or rep-qbs) and incubated at 37°C in a tissue culture incubator. At successive intervals beginning 10 min after mixing the supernatants and substrate, the plates were placed in an Emax plate reader (Molecular Devices LLC) and optical density was measured at visible light wavelength […] (OD650). The shortest incubations at which dose response curve fits produced maximal R^2 ‘goodness of fit’ values, as determined by GraphPad Prism software, were used for analysis.
Pharmacological profiles of the TLR4 reagents were generated by performing dose response curves in one of four formats. 1) Agonist potency and efficacy (EC50 and height of dose plateau, respectively) were measured by diluting TLR4 reagents successively in complete culture medium [DMEM or RPMI supplemented with fetal bovine serum (FBS) or RPMI supplemented with human serum, depending on cell-type]. Half-log step dilutions were performed in 96-well, U-bottom microtiter plates using a multichannel pipette to transfer and mix the suspensions, with fresh tips used for each dilution step. One-tenth (20 μl) volumes from wells of the dilution plate were then transferred to wells containing cells that had been plated in nine-tenth volumes (180 μl) of culture medium. […]

human TLR4 [2] = molecular target: T1, human TLR4; assay: Inhibition curves (IC50 format): antagonist diluted in a fixed concentration of reference agonist, human TLR4 HEK-Blue SEAP; type: cell-based; set-up: host or cells: HEK-Blue (HEK293-derived) reporter cells; details: for inhibition of 3D-6A-PHAD stimulation: fixed 3D-6A-PHAD 300 nM; for IC50: 95% CI given; for inhibition of PHAD stimulation: fixed PHAD 1 μM, 22 h
Procedure: as §1
Pharmacological profiles of the TLR4 reagents were generated by performing dose response curves in one of four formats. 1) Agonist potency and efficacy (EC50 and height of dose plateau, respectively) were measured by diluting TLR4 reagents successively in complete culture medium [DMEM or RPMI supplemented with fetal bovine serum (FBS) or RPMI supplemented with human serum, depending on cell-type]. Half-log step dilutions were performed in 96-well, U-bottom microtiter plates using a multichannel pipette to transfer and mix the suspensions, with fresh tips used for each dilution step. One-tenth (20 μl) volumes from wells of the dilution plate were then transferred to wells containing cells that had been plated in nine-tenth volumes (180 μl) of culture medium. 2) Mixed agonist–antagonist potency and efficacy were measured by mixing a TLR4 agonist with a candidate antagonist at a fixed ratio and then performing half-log step dilutions before treating HEK reporter cells. Analysis of values obtained from SEAP assays of culture supernatants was then performed as described for preparations containing agonist alone, above. 3) Competitive vs allosteric or non-competitive antagonist type was evaluated by diluting a reference agonist within a fixed concentration of a candidate inhibitor in half-log steps, treating HEK reporter cells, performing SEAP assays and then analyzing the data as described for agonist assays, above. Competitive antagonists are characterized by values that reach the same dose plateau as for a reference, full agonist, while shifting potency to higher EC50 values. […] 4) Inhibitory potency (IC50) was measured by diluting antagonists within a fixed concentration of a reference agonist, treating HEK reporter cells and performing SEAP assays as described.

T1 sequence (O00206 24-839): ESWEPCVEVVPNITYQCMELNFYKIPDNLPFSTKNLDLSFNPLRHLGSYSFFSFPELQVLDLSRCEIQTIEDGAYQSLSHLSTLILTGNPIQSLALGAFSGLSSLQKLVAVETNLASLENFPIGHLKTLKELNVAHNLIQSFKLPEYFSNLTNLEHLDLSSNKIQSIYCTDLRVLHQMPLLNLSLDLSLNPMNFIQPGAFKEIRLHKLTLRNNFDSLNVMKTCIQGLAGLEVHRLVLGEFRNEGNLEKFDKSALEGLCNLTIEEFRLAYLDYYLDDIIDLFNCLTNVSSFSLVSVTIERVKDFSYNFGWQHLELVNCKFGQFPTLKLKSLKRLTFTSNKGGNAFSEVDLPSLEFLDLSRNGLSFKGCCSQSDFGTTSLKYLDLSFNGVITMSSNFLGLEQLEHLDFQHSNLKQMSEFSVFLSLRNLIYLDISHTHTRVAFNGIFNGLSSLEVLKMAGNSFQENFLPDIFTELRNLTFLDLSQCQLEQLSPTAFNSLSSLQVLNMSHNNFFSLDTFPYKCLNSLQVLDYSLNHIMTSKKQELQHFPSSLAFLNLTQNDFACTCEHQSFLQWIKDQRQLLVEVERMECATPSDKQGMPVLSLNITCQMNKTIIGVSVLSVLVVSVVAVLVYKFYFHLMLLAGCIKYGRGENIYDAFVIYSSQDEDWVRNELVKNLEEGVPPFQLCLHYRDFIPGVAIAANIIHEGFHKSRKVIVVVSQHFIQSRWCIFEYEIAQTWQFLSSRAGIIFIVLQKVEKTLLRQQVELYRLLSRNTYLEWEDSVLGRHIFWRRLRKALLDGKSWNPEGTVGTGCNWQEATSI
T1 sequence (Q9Y6Y9 17-160 limits assumed): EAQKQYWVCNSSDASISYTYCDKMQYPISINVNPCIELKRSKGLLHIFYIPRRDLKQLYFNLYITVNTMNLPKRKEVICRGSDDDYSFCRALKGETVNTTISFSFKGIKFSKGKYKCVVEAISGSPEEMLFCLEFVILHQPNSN

| agonist profile (human TLR4 [1]) | inhibition of 3D-6A-PHAD stimulation (human TLR4 [2]) | IC50 (human TLR4 [2]; fixed PHAD 30 nM) | inhibition of PHAD stimulation (human TLR4 [2]) | SMILES | extent of inhibition at high dose (human TLR4 [2]; fixed PHAD 30 nM, peak dose 31.6 μM) |
| --- | --- | --- | --- | --- | --- |
| all but inactive | functioned as inhibitors | 400 nM | showed inhibitory potential | CCCCCCCCCCCC(=O)OC(CCCCCCCCCCC)CC(=O)NC1C(OCC2OC(O)C(NC(=O)CC(O)CCCCCCCCCCC)C(O)C2O)OC(CO)C(OP(=O)(O)O)C1OC(=O)CC(O)CCCCCCCCCCC (centres unmarked) [ML4A] | approach a bottom plateau rather than achieving full inhibition |
| largely inactive | functioned as inhibitors | 1320 nM | showed inhibitory potential | CCCCCCCCCCCC(=O)OC(CCCCCCCCCCC)CC(=O)NC1C(OCC2OC(O)C(NC(=O)CC(O)CCCCCCCCCCC)C(O)C2O)OC(CO)C(OP(=O)(O)O)C1O (centres unmarked) [ML3] | – |

| SMILES | agonist profile (human TLR4 [1]) | inhibition of 3D-6A-PHAD stimulation (human TLR4 [2]) | IC50 (human TLR4 [2]; fixed PHAD 30 nM) | inhibition of PHAD stimulation (human TLR4 [2]) | extent of inhibition at high dose (human TLR4 [2]; fixed PHAD 30 nM, peak dose 31.6 μM) |
| --- | --- | --- | --- | --- | --- |
| CCCCCCCCCCCCCCCC(=O)OC(CCCCCCCCCCC)CC(=O)NC1C(O)OC(COC2OC(CO)C(OP(=O)(O)O)C(O)C2NC(=O)CC(CCCCCCCCCCC)OC(=O)CCCCCCCCCCC)C(O)C1O (centres unmarked) [ML4B] | largely inactive | – | – | only ML3 and ML4A showed inhibitory potential | – |
